According to ChEMBL document CHEMBL1143948, “Hepatitis C virus NS3 protease inhibitors comprising a novel aromatic P1 moiety” (Bioorg Med Chem, 2008):

Experiments:
[1] = Inhibition of HCV NS3 protease by FRET assay; design: species or system Hepacivirus hominis
Hepatitis C virus = experiment: Antiviral activity against Hepatitis C virus infected human hepatoma cells by replicon assay; format: functional, organism-based, Hepacivirus hominis
[2] = Cytotoxicity against human hepatoma cells; format: cell-based

Ki [1] [nM] | Compound | also measured
5900 | COc1ccc2c(O[C@@H]3C[C@@H](C(=O)Nc4ccccc4C(=O)NS(C)(=O)=O)N(C(=O)[C@@H](NC(=O)OC(C)(C)C)C(C)(C)C)C3)cc(-c3ccccc3)nc2c1 | 
1800 | COc1ccc2c(O[C@@H]3C[C@@H](C(=O)Nc4ccc(Br)cc4)N(C(=O)[C@@H](NC(=O)OC(C)(C)C)C(C)(C)C)C3)cc(-c3ccccc3)nc2c1 | 
6800 | COc1ccc2c(O[C@@H]3C[C@@H](C(=O)Nc4cccc(C(=O)O)c4)N(C(=O)[C@@H](NC(=O)OC(C)(C)C)C(C)(C)C)C3)cc(-c3ccccc3)nc2c1 | 
14 | CC(C)(C)NC(=O)N[C@H](C(=O)N1C[C@H]2[C@@H]([C@H]1C(=O)NC(CC1CCC1)C(=O)C(N)=O)C2(C)C)C(C)(C)C (stereo partly drawn) [BOCEPREVIR] | 
1400 | COc1ccc2c(O[C@@H]3C[C@@H](C(=O)Nc4cccc(Br)c4)N(C(=O)[C@@H](NC(=O)OC(C)(C)C)C(C)(C)C)C3)cc(-c3ccccc3)nc2c1 | 
830 | COc1ccc2c(O[C@@H]3C[C@@H](C(=O)Nc4ccccc4C(=O)NS(=O)(=O)c4ccccc4)N(C(=O)[C@@H](NC(=O)OC(C)(C)C)C(C)(C)C)C3)cc(-c3ccccc3)nc2c1 | 
39 | CCC[C@H](NC(=O)[C@@H]1[C@H]2CCC[C@H]2CN1C(=O)[C@@H](NC(=O)[C@@H](NC(=O)c1cnccn1)C1CCCCC1)C(C)(C)C)C(=O)C(=O)NC1CC1 [TELAPREVIR] | EC50 (Hepatitis C virus): 310 nM
1200 | COc1ccc(S(=O)(=O)NC(=O)c2ccccc2NC(=O)[C@@H]2C[C@@H](Oc3cc(-c4ccccc4)nc4cc(OC)ccc34)CN2C(=O)[C@@H](NC(=O)OC(C)(C)C)C(C)(C)C)cc1 | 
17000 | COc1ccc2c(O[C@@H]3C[C@@H](C(=O)Nc4ccccc4CC(=O)O)N(C(=O)[C@@H](NC(=O)OC(C)(C)C)C(C)(C)C)C3)cc(-c3ccccc3)nc2c1 | 
12000 | COc1ccc2c(O[C@@H]3C[C@@H](C(=O)Nc4ccc(C(=O)O)cc4)N(C(=O)[C@@H](NC(=O)OC(C)(C)C)C(C)(C)C)C3)cc(-c3ccccc3)nc2c1 | 
920 | COc1ccc2c(O[C@@H]3C[C@@H](C(=O)Nc4ccccc4C(=O)NS(=O)(=O)c4cccs4)N(C(=O)[C@@H](NC(=O)OC(C)(C)C)C(C)(C)C)C3)cc(-c3ccccc3)nc2c1 | 
610 | COc1ccc2c(O[C@@H]3C[C@@H](C(=O)Nc4ccccc4C(=O)NS(=O)(=O)Cc4ccccc4)N(C(=O)[C@@H](NC(=O)OC(C)(C)C)C(C)(C)C)C3)cc(-c3ccccc3)nc2c1 | 
3900 | COc1ccc2c(O[C@@H]3C[C@@H](C(=O)Nc4ccccc4Br)N(C(=O)[C@@H](NC(=O)OC(C)(C)C)C(C)(C)C)C3)cc(-c3ccccc3)nc2c1 | 
310 | COc1ccc2c(O[C@@H]3C[C@@H](C(=O)Nc4ccccc4C(=O)NS(=O)(=O)c4ccc(C(F)(F)F)cc4)N(C(=O)[C@@H](NC(=O)OC(C)(C)C)C(C)(C)C)C3)cc(-c3ccccc3)nc2c1 | 
1100 | COc1ccc2c(O[C@@H]3C[C@@H](C(=O)Nc4ccc(C(=O)NS(=O)(=O)c5ccccc5)cc4)N(C(=O)[C@@H](NC(=O)OC(C)(C)C)C(C)(C)C)C3)cc(-c3ccccc3)nc2c1 | 
5000 | COc1ccc2c(O[C@@H]3C[C@@H](C(=O)Nc4ccccc4C(=O)O)N(C(=O)[C@@H](NC(=O)OC(C)(C)C)C(C)(C)C)C3)cc(-c3ccccc3)nc2c1 | 
66000 | COc1ccc2c(O[C@@H]3C[C@@H](C(=O)O)N(C(=O)[C@@H](NC(=O)OC(C)(C)C)C(C)(C)C)C3)cc(-c3ccccc3)nc2c1 [CORBOXYLIC ACID] | 
3200 | COc1ccc2c(O[C@@H]3C[C@@H](C(=O)Nc4c(C)cccc4C(=O)NS(=O)(=O)c4ccccc4)N(C(=O)[C@@H](NC(=O)OC(C)(C)C)C(C)(C)C)C3)cc(-c3ccccc3)nc2c1 | 
350 | COc1ccc2c(O[C@@H]3C[C@@H](C(=O)Nc4cc(C(F)(F)F)ccc4C(=O)NS(=O)(=O)c4ccccc4)N(C(=O)[C@@H](NC(=O)OC(C)(C)C)C(C)(C)C)C3)cc(-c3ccccc3)nc2c1 | CC50 [2]: 28000 nM; EC50 (Hepatitis C virus): 5200 nM
780 | COc1ccc2c(O[C@@H]3C[C@@H](C(=O)Nc4cccc(C(=O)NS(=O)(=O)c5ccccc5)c4)N(C(=O)[C@@H](NC(=O)OC(C)(C)C)C(C)(C)C)C3)cc(-c3ccccc3)nc2c1 | 
 | CC(C)(C)OC(=O)N[C@H]1CCCCC/C=C\[C@@H]2C[C@@]2(C(=O)NS(=O)(=O)C2CC2)NC(=O)[C@@H]2C[C@@H](OC(=O)N3Cc4cccc(F)c4C3)CN2C1=O [DANOPREVIR] | IC50 [1]: < 0.25 nM; EC50 (Hepatitis C virus): 2.1 nM
2000 | COc1ccc2c(O[C@@H]3C[C@@H](C(=O)Nc4ccccc4C(=O)NS(=O)(=O)C4CC4)N(C(=O)[C@@H](NC(=O)OC(C)(C)C)C(C)(C)C)C3)cc(-c3ccccc3)nc2c1 | 

Compound | Ki [1] [nM] | also measured
COc1ccc2c(O[C@@H]3C[C@H]4C(=O)N[C@]5(C(=O)O)C[C@H]5/C=C\CCCCC[C@H](NC(=O)OC5CCCC5)C(=O)N4C3)cc(-c3csc(NC(C)C)n3)nc2c1 [CILUPREVIR] | 0.66 | EC50 (Hepatitis C virus): 3 nM
